# Source: US9243034B2, “Glycogen synthase kinase-3 inhibitors” (Ramot at Tel-Aviv University Ltd., priority 2011, dated 2016)
# Where a SMILES comes first, the peptide text is derived from it. [ ]: non-standard residue; d: D form. The star is where a group is joined. Myristoyl = CCCCCCCCCCCCCC(=O)*; pS = N[C@@H](COP(=O)(O)O)C(=O)O
# Key:
# β-catenin [1] = assay: Hippocampus β-catenin levels in mice after nasal administration; assay type: in vivo, C57BL/6J mice; settings: 60 μg peptide/mouse/day, 3 days, vs non-treated
# Experimental: C57BL/6J mice (12 week old; obtained from Animal Facilities at Tel Aviv University) were treated with L803-mts or L806-mts via a nasal administration (60 μg peptide/per mouse/per day) for 3 days. Non-treated animals served as control. Brains were removed and hippocampus was homogenized in ice-cold ‘buffer G’(20 mM Tris pH 7.5, 10 mM β-glycerophosphate, 10% glycerol, 1 mM EGTA, 1 mM EDTA, 50 mM NaF, 5 mM sodium pyrophosphate, 0.5 mM orthovanadate, 1 mM benzamidine, 5 μg/ml leupeptin, 25 μg/ml aprotinin, 5 μg/ml pepstatin, and 0.5% Triton X100). Equal amounts of proteins (50 μg) were subjected to gel electrophoresis, transferred to nitrocellulose membranes, and immunoblotted with anti-β-catenin antibody. Hippocampus β-catenin levels were determined by western blot analysis as described.
# [2] = test system: heat shock factor-1 (HSF-1); assay: Phosphorylation of HSF-1 in COS-7 cells, Western blot; assay type: cell-based; settings: FIG. 6C
# Experimental: L806-mts-treated COS-7 cells were also tested for phosphorylation of the GSK-3 substrate heat shock factor-1 (HSF-1).
# GSK-3β = molecular target: T1, GSK-3β (Homo sapiens, UniProt P49841); assay: In vitro kinase assay with GSK-3β in the presence of peptide inhibitor; assay type: biochemical
# T1 construct: made in house; host or cells: HEK-293 (transient transfection, pCMV4 vector; DE-52 partial purification)
# T1 sequence (P49841 1-433 isoform P49841-2): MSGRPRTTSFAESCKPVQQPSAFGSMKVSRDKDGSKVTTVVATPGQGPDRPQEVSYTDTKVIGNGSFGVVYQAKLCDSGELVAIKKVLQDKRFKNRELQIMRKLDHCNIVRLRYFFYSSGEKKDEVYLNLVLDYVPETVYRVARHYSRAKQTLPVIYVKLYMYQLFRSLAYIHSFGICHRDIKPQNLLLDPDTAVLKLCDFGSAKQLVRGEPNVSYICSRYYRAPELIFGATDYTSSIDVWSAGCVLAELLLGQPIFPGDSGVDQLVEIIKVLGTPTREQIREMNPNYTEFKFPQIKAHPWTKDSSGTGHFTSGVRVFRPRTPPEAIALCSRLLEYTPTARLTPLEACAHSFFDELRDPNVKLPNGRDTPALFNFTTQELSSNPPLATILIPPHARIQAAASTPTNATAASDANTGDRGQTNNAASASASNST
# Experimental: (§1) (0.5 μCi/assay) for 15 minutes.
# The ability of each peptide to inhibit GSK-3β was then determined by in vitro kinase assays as described hereinabove.
# β-catenin [3] = assay: β-catenin levels in COS-7 cells, Western blot; assay type: cell-based; settings: various concentrations, 5 hour, FIG. 6B
# Experimental: In further studies, COS-7 cells were treated with L806-mts at various concentrations for 5 hour.
# pGS-1 = assay: In vitro kinase assay of GSK-3β mutants, substrate pGS-1; assay type: biochemical; settings: WT set to 100%; mean of 2-3 experiments ± SEM
# Experimental: (§2) HEK-293 cells were grown in Dulbecco's Modified Eagle's Medium (DMEM), supplemented with 10% fetal calf serum (FCS), 2 mM glutamine, 100 units/ml penicillin, and 100 μg/ml streptomycin. HEK-293 cells were transiently transfected with indicated constructs, using calcium phosphate method as described [Ilouz et al. (2006) supra]. Cells were lysed in ice-cold buffer G (20 mM Tris-HCl, pH 7.5, 10 mM β-glycerophosphate, 10% glycerol, 1 mM EGTA, 1 mM EDTA, 50 mM NaF, 5 mM sodium pyrophosphate, 0.5 mM orthovanadate, 1 mM benzamidine, 10 μg/ml leupeptin, 5 μg/ml aprotinin, 1 μg/ml pepstatin, and 0.5% Triton X100). Cell extracts were centrifuged for 30 minutes at 15,000×g. Supernatants were collected, and equal amounts of proteins were boiled with SDS sample buffer and subjected to gel electrophoresis (7.5-12% polyacrylamide gel), transferred to nitrocellulose membranes, and immunoblotted with indicated antibodies. For partial purification, cells were lysed in buffer H (20 mM Tris, pH 7.3, 1 mM EGTA, 1 mM EDTA, 1 mM orthovanadate, 25 μg/ml leupeptin, 25 μg/ml aprotinin, and 25 μg/ml pepstatin A, 500 nM microcystine LR, and 0.25% Triton X100). The lysates were centrifuged at 15,000×g. The resulting supernatants were passed through DE-52 (Whatman, Maidstone, England) mini-columns that were equilibrated with buffer H. GSK-3β proteins were eluted with the same buffer containing 0.02 M NaCl. Equal amounts of proteins were used for in vitro kinase assays. In all experiments, GSK-3 mutants were expressed at levels at least 5-fold higher than levels of the endogenous GSK-3β as determined by western blot analysis.
# as §1
# (§3) The GSK-3β mutants were partially purified by ion exchange chromatography, and their abilities to phosphorylate peptide substrates were tested in in vitro kinase assays. The substrates were: pIRS-1, p9CREB, and pGS-1, phosphorylated peptides derived from the insulin receptor substrate-1 (IRS-1), cAMP responsive element binding protein (CREB), and glycogen synthase, respectively.
# (§4) The results are presented in Table 1, as the percentage of substrate phosphorylation (indicated peptides, pIRS-1, p9CREB and pGS-1) obtained with WTGSK-3β which was set to 100%, and are mean of 2-3 independent experiments each performed in duplicates±SEM.
# pIRS-1 = assay: In vitro kinase assay of GSK-3β mutants, substrate pIRS-1; assay type: biochemical; settings: WT set to 100%; mean of 2-3 experiments ± SEM
# Experimental: as §2, §1, §3, §4
# [4] = test system: CREB (Ser 129) and N′IRS-1 (Ser 332); assay: Phosphorylation of CREB and N'IRS-1 in HEK-293 cells expressing GSK-3β proteins; assay type: cell-based; settings: forskolin or PMA treated, compared with WT-GSK-3β
# Experimental: The role of Phe 93 in substrate binding by employing a cellular system and protein substrates (i.e., not peptides) was further explored. To this end, the WT-GSK-3β and F93A mutant were expressed in HEK-293 cells together with GSK-3 substrates CREB or N′IRS-1 (the N-terminal region of IRS-1). Because GSK-3 requires pre-phosphorylation of its substrates, the cells were treated with forskolin to enhance CREB phosphorylation via activation of cAMP dependent kinase (PKA), or with phorbol ester (PMA) to enhance N′IRS-1 phosphorylation via activation of protein kinase C (PKC). The phosphorylation of CREB at serine 129, and N′IRS-1 at serine 332 (both GSK-3 phosphorylation sites) was then examined.
# Thus, HEK293 cells were co-transfected with WT-GSK-3β or F93A plasmids together with construct coding for CREB. Cells were treated with forskolin (10 μM, 1 hour), and cell extracts were subjected to western blot analysis using anti-phospho CREB (Ser 129/133) antibody, as presented in FIG. 1D. Expression levels of CREB and GSK-3 proteins are indicated.
# Similar assay was conducted using N′IRS-1 cDNA construct instead of CREB, and cells were treated with PMA (100 nM, 30 minutes). Expression levels of N′IRS-1 and GSK-3β are indicated. Results are means of three independent experiments±SEM.
# p9CREB = assay: In vitro kinase assay of GSK-3β mutants, substrate p9CREB; assay type: biochemical; settings: WT set to 100%; mean of 2-3 experiments ± SEM
# Experimental: as §2, §1, §3, §4
"Substrate phosphorylation (% of WTGSK-3β), pGS-1 (pGS-1)","Substrate phosphorylation (% of WTGSK-3β), pIRS-1 (pIRS-1)","Substrate phosphorylation (% of WTGSK-3β), p9CREB (p9CREB)",Molecule,Hippocampus β-catenin levels (β-catenin [1]),Phosphorylation of HSF-1 [2],IC50 (GSK-3β),Levels of β-catenin (β-catenin [3]),Phosphorylation of CREB and N′IRS-1 in cells [4]
–,–,–,CCCCCCCCCCCCCC(=O)NCC(=O)N[C@@H](CCCCN)C(=O)N[C@@H](CCC(=O)O)C(=O)N[C@@H](C)C(=O)N1CCC[C@H]1C(=O)N1CCC[C@H]1C(=O)N[C@@H](C)C(=O)N1CCC[C@H]1C(=O)N1CCC[C@H]1C(=O)N1CCC[C@H]1C(=O)N[C@@H](COP(=O)(O)O)C(=O)N1CCC[C@H]1C(=O)O [L806-mts] (Myristoyl-GKEAPPAPPP[pS]P-OH; C-terminus assumed),elevation in β-catenin levels,Reduced phosphorylation,~1000 nM,Elevation of β-catenin,–
13 ± 7 % of WTGSK-3β,42 ± 13 % of WTGSK-3β,46 ± 2 % of WTGSK-3β,"F93A: GSK-3β mutant, F93 replaced by alanine, SEQ ID NO:9 (protein, GSK-3 beta, F93A mutant) MSGRPRTTSFAESCKPVQQPSAFGSMKVSRDKDGSKVTTVVATPGQGPDRPQEVSYTDTKVIGNGSFGVVYQAKLCDSGELVAIKKVLQDKRAKNRELQIMRKLDHCNIVRLRYFFYSSGEKKDEVYLNLVLDYVPETVYRVARHYSRAKQTLPVIYVKLYMYQLFRSLAYIHSFGICHRDIKPQNLLLDPDTAVLKLCDFGSAKQLVRGEPNVSYICSRYYRAPELIFGATDYTSSIDVWSAGCVLAELLLGQPIFPGDSGVDQLVEIIKVLGTPTREQIREMNPNYTEFKFPQIKAHPWTKDSSGTGHFTSGVRVFRPRTPPEAIALCSRLLEYTPTARLTPLEACAHSFFDELRDPNVKLPNGRDTPALFNFTTQELSSNPPLATILIPPHARIQAAASTPTNATAASDANTGDRGQTNNAASASASNST",–,–,–,–,did not enhance the phosphorylation
